Values after ≈ are worked out from the molar mass of the structure shown.
How the values were obtained:
Rattus norvegicus [1] = assay: Dose normalized AUC in Sprague-Dawley rat at 1 mg/kg, iv; format: ADME, organism-based; conditions: in vivo
[2] = Solubility of the compound in water at pH 6.8; format: physicochemical
[3] = Clearance in Sprague-Dawley rat at 1 mg/kg, iv; format: ADME, organism-based; conditions: in vivo
[4] = Terminal half life in Sprague-Dawley rat at 1 mg/kg, iv; format: ADME, organism-based; conditions: in vivo, read-out: beta t1/2 (converted)
[5] = target: T1, Phosphatidylinositol 4,5-bisphosphate 3-kinase catalytic subunit alpha isoform (Homo sapiens, UniProt P42336); assay: Inhibition of P110alpha (unknown origin) by Kinase-Glo assay
[6] = Solubility of the compound in water at pH 4; format: physicochemical
[7] = Volume of distribution at steady state in Sprague-Dawley rat at 1 mg/kg, iv; format: ADME, organism-based; conditions: in vivo, read-out: Vdss
[8] = target: T2, Phosphatidylinositol 4,5-bisphosphate 3-kinase catalytic subunit delta isoform (Homo sapiens, UniProt O00329); assay: Inhibition of P110delta (unknown origin) using PI or PIP2:PS as substrate measured for 15 to 60 mins by TR-FRET analysis
T2 sequence (O00329 whole entry): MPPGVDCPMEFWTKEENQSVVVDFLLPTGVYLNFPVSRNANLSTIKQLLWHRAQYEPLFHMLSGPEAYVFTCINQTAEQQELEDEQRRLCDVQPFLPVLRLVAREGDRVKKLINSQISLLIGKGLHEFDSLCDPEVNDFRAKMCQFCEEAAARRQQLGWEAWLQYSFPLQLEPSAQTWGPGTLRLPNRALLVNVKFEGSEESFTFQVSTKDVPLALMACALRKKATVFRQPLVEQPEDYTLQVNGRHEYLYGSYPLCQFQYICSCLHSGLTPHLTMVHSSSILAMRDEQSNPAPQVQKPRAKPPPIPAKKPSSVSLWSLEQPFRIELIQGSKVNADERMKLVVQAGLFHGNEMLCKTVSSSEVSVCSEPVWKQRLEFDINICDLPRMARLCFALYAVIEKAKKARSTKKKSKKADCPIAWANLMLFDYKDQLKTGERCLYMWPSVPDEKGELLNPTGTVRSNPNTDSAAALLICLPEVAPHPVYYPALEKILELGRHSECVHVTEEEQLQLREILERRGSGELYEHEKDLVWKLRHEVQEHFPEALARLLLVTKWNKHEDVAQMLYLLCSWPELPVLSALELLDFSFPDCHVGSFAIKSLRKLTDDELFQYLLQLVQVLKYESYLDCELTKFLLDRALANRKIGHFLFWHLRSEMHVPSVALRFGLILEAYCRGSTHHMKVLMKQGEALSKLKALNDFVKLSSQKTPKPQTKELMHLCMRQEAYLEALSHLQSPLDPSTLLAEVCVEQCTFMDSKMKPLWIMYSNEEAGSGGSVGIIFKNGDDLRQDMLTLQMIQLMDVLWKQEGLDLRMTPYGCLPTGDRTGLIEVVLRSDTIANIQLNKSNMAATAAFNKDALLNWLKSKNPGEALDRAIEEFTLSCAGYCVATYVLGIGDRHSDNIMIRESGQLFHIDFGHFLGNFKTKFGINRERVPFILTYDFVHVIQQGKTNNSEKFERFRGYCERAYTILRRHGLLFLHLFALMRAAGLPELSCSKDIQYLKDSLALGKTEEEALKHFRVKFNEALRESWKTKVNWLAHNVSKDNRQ

[9] = Tmax in Sprague-Dawley rat at 3 mg/kg, po; format: ADME, organism-based; conditions: in vivo
[10] = target: T1, Phosphatidylinositol 4,5-bisphosphate 3-kinase catalytic subunit alpha isoform; assay: Inhibition of myristoylated human P110alpha expressed in Rat1 cells assessed as inhibition of Akt phosphorylation at Serine 473 by Western blot analysis; format: cell-based
Rattus norvegicus [11] = assay: Dose normalized AUC in Sprague-Dawley rat at 3 mg/kg, po; format: ADME, organism-based; conditions: in vivo
[12] = target: T3, Phosphatidylinositol 4,5-bisphosphate 3-kinase catalytic subunit beta isoform (Homo sapiens, UniProt P42338); assay: Inhibition of P110beta (unknown origin) by Kinase-Glo assay
[13] = target: Phosphatidylinositol 4,5-bisphosphate 3-kinase catalytic subunit gamma isoform (Homo sapiens, UniProt P48736); assay: Inhibition of P110gamma (unknown origin) using PI or PIP2:PS as substrate measured for 15 to 60 mins by TR-FRET analysis
[14] = Oral bioavailability in Sprague-Dawley rat at 3 mg/kg; format: ADME, organism-based; conditions: in vivo
Rattus norvegicus [15] = assay: Dose normalized Cmax in Sprague-Dawley rat at 3 mg/kg, po; format: ADME, organism-based; conditions: in vivo
[16] = target: T2, Phosphatidylinositol 4,5-bisphosphate 3-kinase catalytic subunit delta isoform; assay: Inhibition of myristoylated human P110delta expressed in Rat1 cells assessed as inhibition of Akt phosphorylation at Serine 473 by Western blot analysis; format: cell-based
[17] = Plasma protein binding in rat; format: ADME, cell-free; conditions: read-out: PPB (converted)
[18] = target: T3, Phosphatidylinositol 4,5-bisphosphate 3-kinase catalytic subunit beta isoform; assay: Inhibition of myristoylated human P110beta expressed in Rat1 cells assessed as inhibition of Akt phosphorylation at Serine 473 by Western blot analysis; format: cell-based
[19] = Solubility of the compound in […]; format: physicochemical

T1 sequence (P42336 whole entry, canonical isoform): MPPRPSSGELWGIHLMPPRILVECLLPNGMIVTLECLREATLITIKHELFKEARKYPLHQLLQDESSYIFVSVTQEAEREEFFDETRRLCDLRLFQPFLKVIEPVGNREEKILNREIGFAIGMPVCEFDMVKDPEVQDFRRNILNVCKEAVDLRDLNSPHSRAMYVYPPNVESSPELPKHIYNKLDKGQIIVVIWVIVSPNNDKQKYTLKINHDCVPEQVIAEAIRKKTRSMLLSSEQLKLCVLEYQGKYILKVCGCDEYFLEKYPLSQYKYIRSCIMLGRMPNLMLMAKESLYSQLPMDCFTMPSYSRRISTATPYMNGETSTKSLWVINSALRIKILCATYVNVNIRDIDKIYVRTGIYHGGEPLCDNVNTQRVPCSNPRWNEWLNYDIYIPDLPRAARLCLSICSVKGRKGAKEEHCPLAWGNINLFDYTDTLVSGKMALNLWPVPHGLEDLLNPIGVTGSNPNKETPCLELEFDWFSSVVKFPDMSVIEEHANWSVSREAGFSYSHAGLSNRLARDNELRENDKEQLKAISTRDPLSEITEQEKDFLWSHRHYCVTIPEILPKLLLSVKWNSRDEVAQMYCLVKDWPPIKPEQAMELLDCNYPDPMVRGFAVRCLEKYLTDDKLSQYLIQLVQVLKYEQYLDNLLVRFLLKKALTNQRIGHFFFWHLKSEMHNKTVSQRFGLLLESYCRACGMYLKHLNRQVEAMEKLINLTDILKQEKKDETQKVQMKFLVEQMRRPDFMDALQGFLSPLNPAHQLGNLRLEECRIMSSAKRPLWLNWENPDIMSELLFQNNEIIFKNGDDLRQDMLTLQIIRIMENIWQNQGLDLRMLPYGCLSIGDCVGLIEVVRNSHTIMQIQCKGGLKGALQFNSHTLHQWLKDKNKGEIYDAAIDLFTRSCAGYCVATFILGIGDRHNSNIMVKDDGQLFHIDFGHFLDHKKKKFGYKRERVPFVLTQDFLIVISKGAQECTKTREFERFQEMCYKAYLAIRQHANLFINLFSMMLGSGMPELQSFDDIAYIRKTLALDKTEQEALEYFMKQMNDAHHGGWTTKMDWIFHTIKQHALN
T3 sequence (P42338 whole entry, canonical isoform): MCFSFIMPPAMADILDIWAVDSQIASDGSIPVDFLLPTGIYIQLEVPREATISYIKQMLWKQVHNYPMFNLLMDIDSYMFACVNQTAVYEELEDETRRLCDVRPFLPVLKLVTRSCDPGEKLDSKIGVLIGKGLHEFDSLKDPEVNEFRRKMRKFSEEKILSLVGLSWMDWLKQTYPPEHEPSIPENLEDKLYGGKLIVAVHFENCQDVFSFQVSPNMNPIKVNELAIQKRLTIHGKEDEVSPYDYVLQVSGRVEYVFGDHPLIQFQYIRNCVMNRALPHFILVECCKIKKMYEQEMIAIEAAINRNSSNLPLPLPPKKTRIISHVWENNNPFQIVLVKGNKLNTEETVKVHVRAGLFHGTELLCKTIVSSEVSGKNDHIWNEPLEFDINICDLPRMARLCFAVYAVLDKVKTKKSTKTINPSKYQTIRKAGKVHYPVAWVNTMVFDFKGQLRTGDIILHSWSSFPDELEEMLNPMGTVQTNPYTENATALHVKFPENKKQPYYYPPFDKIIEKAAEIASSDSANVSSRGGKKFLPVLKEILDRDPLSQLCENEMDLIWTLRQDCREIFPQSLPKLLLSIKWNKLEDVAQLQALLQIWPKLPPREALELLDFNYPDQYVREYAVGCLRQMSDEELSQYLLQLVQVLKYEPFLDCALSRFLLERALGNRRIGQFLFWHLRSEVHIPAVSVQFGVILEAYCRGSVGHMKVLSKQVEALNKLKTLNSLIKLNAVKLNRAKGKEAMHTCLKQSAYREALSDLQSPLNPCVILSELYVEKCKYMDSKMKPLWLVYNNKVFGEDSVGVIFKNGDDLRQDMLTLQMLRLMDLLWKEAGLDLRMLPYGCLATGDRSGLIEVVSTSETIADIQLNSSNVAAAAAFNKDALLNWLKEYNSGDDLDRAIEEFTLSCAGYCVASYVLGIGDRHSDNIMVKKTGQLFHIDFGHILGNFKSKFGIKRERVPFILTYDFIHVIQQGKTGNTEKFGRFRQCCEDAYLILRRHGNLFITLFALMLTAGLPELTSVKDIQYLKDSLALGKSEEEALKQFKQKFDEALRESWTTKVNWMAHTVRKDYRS
Chain of Phosphatidylinositol 4,5-bisphosphate 3-kinase catalytic subunit gamma isoform (P48736 whole entry, canonical isoform): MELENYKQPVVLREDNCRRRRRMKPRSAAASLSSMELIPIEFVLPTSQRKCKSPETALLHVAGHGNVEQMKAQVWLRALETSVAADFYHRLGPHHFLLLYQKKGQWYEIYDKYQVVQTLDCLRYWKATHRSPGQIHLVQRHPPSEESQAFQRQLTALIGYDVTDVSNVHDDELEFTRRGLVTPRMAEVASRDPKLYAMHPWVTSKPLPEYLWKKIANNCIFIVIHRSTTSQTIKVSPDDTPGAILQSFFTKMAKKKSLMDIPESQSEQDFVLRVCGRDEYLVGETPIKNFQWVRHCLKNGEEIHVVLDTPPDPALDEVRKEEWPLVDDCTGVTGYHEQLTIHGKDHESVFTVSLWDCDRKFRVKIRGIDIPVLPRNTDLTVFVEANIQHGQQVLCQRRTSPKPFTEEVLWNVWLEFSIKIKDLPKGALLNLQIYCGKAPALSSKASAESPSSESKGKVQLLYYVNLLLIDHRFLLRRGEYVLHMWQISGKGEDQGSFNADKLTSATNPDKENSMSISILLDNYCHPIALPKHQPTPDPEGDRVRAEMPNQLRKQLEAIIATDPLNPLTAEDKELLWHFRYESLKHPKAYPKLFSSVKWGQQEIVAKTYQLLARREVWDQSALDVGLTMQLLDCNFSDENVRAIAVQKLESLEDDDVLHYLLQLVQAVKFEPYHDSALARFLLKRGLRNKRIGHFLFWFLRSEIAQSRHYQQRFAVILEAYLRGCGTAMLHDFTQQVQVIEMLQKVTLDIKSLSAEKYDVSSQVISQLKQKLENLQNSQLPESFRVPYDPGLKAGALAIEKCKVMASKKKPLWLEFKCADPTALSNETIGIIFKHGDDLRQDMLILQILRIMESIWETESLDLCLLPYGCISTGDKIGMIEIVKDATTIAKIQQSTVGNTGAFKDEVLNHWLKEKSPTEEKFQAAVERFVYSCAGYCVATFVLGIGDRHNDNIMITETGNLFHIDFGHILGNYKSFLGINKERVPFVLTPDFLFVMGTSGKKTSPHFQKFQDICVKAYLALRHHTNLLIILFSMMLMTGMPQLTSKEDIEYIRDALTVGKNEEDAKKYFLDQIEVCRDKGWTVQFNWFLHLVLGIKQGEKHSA

| AUC/dose (Rattus norvegicus [1]) | solubility [2] | clearance [3] | half-life [4] | IC50 [5] | solubility [6] | Vd [7] | IC50 [8] | Tmax [9] | IC50 [10] | AUC/dose (Rattus norvegicus [11]) | IC50 [12] | IC50 [13] | bioavailability [14] | Cmax/dose (Rattus norvegicus [15]) | IC50 [16] | fraction unbound [17] | IC50 [18] | solubility [19] | SMILES |
| --- | --- | --- | --- | --- | --- | --- | --- | --- | --- | --- | --- | --- | --- | --- | --- | --- | --- | --- | --- |
| 1368 nM·h | 260 µM (≈ 122 µg/mL) | 27 mL/min/kg | 1.4 h | 5 nM | 450 µM (≈ 211 µg/mL) | 1.8 L/kg | 220 nM | 1.2 h | 11 nM | 228 nM·h | 670 nM | 200 nM | 17% | 61 nM | 540 nM | 0.033 | 1110 nM | 410 µM (≈ 192 µg/mL) | C[C@@H]1CCN(C(=O)Nc2nc3c(s2)-c2cc(C(C)(C)C(F)(F)F)ncc2OC3)[C@@H]1C(N)=O |
| – | 23 µM (≈ 10.5 µg/mL) | – | – | 19 nM | 35 µM (≈ 15.9 µg/mL) | – | 390 nM | – | 19 nM | – | 1040 nM | 230 nM | – | – | 616 nM | – | 2000 nM | 31 µM (≈ 14.1 µg/mL) | Cc1nc(NC(=O)N2CC[C@@H](C)[C@H]2C(N)=O)sc1-c1ccnc(C(C)(C)C(F)(F)F)c1 |
